# Assay results as given in ChEMBL document CHEMBL4138088, “Novel 1-(7-ethoxy-1-benzofuran-2-yl) substituted chalcone derivatives: Synthesis, characterization and anticancer activity” (Eur J Med Chem, 2017).
# Calls of active or inactive are those of the source. No cut-off for these calls is given here.
# Tests used:
# A549 [1] = assay: Induction of mitochondrial membrane depolarization in human A549 cells assessed as live cells at 20 uM after 48 hrs by 7-AAD/Muse mito-potential dye-based assay (reference value: 85.84%); format: functional
# A549 [2] = assay: Induction of apoptosis in human A549 cells assessed as necrotic cells at 20 uM after 48 hrs by annexin V-propidium iodide staining-based flow cytometry (reference value: 1.4%); format: functional
# A549 [3] = assay: Induction of apoptosis in human A549 cells assessed as necrotic cells at 20 uM after 48 hrs by caspase 3/7 staining-based flow cytometry (reference value: 1.50%); format: functional
# PC-3 [4] = assay: Induction of apoptosis in human PC3 cells assessed as late apoptotic cells at 20 uM after 48 hrs by annexin V-propidium iodide staining-based flow cytometry (reference value: 1.45%); format: functional
# A549 [5] = assay: Induction of apoptosis in human A549 cells assessed as viable cells at 20 uM after 48 hrs by caspase 3/7 staining-based flow cytometry (reference value: 94.25%); format: functional; details: A549, 48 h, read-out: Activity
# PC-3 [6] = assay: Growth inhibition of human PC3 cells after 72 hrs by ATP bioluminescence assay; format: functional, cell-based; details: PC-3, 72 h
# A549 [7] = assay: Induction of mitochondrial membrane depolarization in human A549 cells assessed as depolarized dead cells at 20 uM after 48 hrs by 7-AAD/Muse mito-potential dye-based assay (reference value: 7.88%); format: functional
# PC-3 [8] = assay: Induction of apoptosis in human PC3 cells assessed as necrotic cells at 20 uM after 48 hrs by caspase 3/7 staining-based flow cytometry (reference value: 3.05%); format: functional
# A549 [9] = assay: Induction of ROS generation in human A549 cells assessed as accumulation at M1 phase at 20 uM after 48 hrs flow cytometry (reference value: 97.60%); format: functional
# A549 [10] = assay: Induction of ROS generation in human A549 cells assessed as accumulation at M2 phase at 20 uM after 48 hrs flow cytometry (reference value: 1.07%); format: functional
# A549 [11] = assay: Induction of apoptosis in human A549 cells assessed as early apoptotic cells at 20 uM after 48 hrs by annexin V-propidium iodide staining-based flow cytometry (reference value: 3.75%); format: functional
# PC-3 [12] = assay: Induction of mitochondrial membrane depolarization in human PC3 cells assessed as depolarized live cells at 20 uM after 48 hrs by 7-AAD/Muse mito-potential dye-based assay (reference value: 12.60%); format: functional
# MCF7 [13] = assay: Induction of mitochondrial membrane depolarization in human MCF7 cells assessed as live cells at 20 uM after 48 hrs by 7-AAD/Muse mito-potential dye-based assay (reference value: 78.59%); format: functional
# PC-3 [14] = assay: Induction of apoptosis in human PC3 cells assessed as necrotic cells at 20 uM after 48 hrs by annexin V-propidium iodide staining-based flow cytometry (reference value: 2.45%); format: functional
# MCF7 [15] = assay: Induction of morphological changes in human MCF7 cells assessed as reduction in cell density at 20 uM after 72 hrs by phase contrast microscopic method; format: functional, cell-based
# PC-3 [16] = assay: Induction of mitochondrial membrane depolarization in human PC3 cells assessed as dead cells at 20 uM after 48 hrs by 7-AAD/Muse mito-potential dye-based assay (reference value: 2.20%); format: functional
# PC-3 [17] = assay: Induction of apoptosis in human PC3 cells assessed as early apoptotic cells at 20 uM after 48 hrs by caspase 3/7 staining-based flow cytometry (reference value: 0.3%); format: functional
# MCF7 [18] = assay: Induction of apoptosis in human MCF7 cells assessed as early apoptotic cells at 20 uM after 48 hrs by caspase 3/7 staining-based flow cytometry (reference value: 2.65%); format: functional
# PC-3 [19] = assay: Induction of ROS generation in human PC3 cells assessed as accumulation at M1 phase at 20 uM after 48 hrs flow cytometry (reference value: 99.67%); format: functional
# MCF7 [20] = assay: Induction of mitochondrial membrane depolarization in human MCF7 cells assessed as depolarized live cells at 20 uM after 48 hrs by 7-AAD/Muse mito-potential dye-based assay (reference value: 6.67%); format: functional
# PC-3 [21] = assay: Growth inhibition of human PC3 cells at 20 uM after 72 hrs by ATP bioluminescence assay; format: functional, cell-based
# A549 [22] = assay: Induction of apoptosis in human A549 cells assessed as viable cells at 20 uM after 48 hrs by annexin V-propidium iodide staining-based flow cytometry (reference value: 91.80%); format: functional; details: A549, 48 h, read-out: Activity
# A549 [23] = assay: Induction of apoptosis in human A549 cells assessed as early apoptotic cells at 20 uM after 48 hrs by caspase 3/7 staining-based flow cytometry (reference value: 1.70%); format: functional
# PC-3 [24] = assay: Induction of mitochondrial membrane depolarization in human PC3 cells assessed as depolarized dead cells at 20 uM after 48 hrs by 7-AAD/Muse mito-potential dye-based assay (reference value: 2.05%); format: functional
# MCF7 [25] = assay: Induction of apoptosis in human MCF7 cells assessed as necrotic cells at 20 uM after 48 hrs by caspase 3/7 staining-based flow cytometry (reference value: 1.25%); format: functional
# PC-3 [26] = assay: Induction of apoptosis in human PC3 cells assessed as late apoptotic cells at 20 uM after 48 hrs by caspase 3/7 staining-based flow cytometry (reference value: 1.90%); format: functional
# MCF7 [27] = assay: Induction of mitochondrial membrane depolarization in human MCF7 cells assessed as depolarized dead cells at 20 uM after 48 hrs by 7-AAD/Muse mito-potential dye-based assay (reference value: 12.43%); format: functional
# MCF7 [28] = assay: Induction of apoptosis in human MCF7 cells assessed as late apoptotic cells at 20 uM after 48 hrs by caspase 3/7 staining-based flow cytometry (reference value: 10.80%); format: functional
# MCF7 [29] = assay: Growth inhibition of human MCF7 cells at 20 uM after 72 hrs by ATP bioluminescence assay; format: functional, cell-based
# A549 [30] = assay: Growth inhibition of human A549 cells after 72 hrs by ATP bioluminescence assay; format: functional, cell-based; details: A549, 72 h
# MCF7 [31] = assay: Induction of apoptosis in human MCF7 cells assessed as viable cells at 20 uM after 48 hrs by annexin V-propidium iodide staining-based flow cytometry (reference value: 90.25%); format: functional; details: MCF7, 48 h, read-out: Activity
# MCF7 [32] = assay: Induction of apoptosis in human MCF7 cells assessed as necrotic cells at 20 uM after 48 hrs by annexin V-propidium iodide staining-based flow cytometry (reference value: 0.35%); format: functional
# A549 [33] = assay: Induction of apoptosis in human A549 cells assessed as late apoptotic cells at 20 uM after 48 hrs by caspase 3/7 staining-based flow cytometry (reference value: 2.56%); format: functional
# MCF7 [34] = assay: Growth inhibition of human MCF7 cells at 20 uM after 72 hrs by SRB assay; format: functional, cell-based
# MCF7 [35] = assay: Induction of apoptosis in human MCF7 cells assessed as viable cells at 20 uM after 48 hrs by caspase 3/7 staining-based flow cytometry (reference value: 85.30%); format: functional; details: MCF7, 48 h, read-out: Activity
# PC-3 [36] = assay: Induction of morphological changes in human PC3 cells assessed as reduction in cell density at 20 uM after 72 hrs by phase contrast microscopic method; format: functional, cell-based
# A549 [37] = assay: Induction of morphological changes in human A549 cells assessed as reduction in cell density at 20 uM after 72 hrs by phase contrast microscopic method; format: functional, cell-based
# PC-3 [38] = assay: Induction of apoptosis in human PC3 cells assessed as viable cells at 20 uM after 48 hrs by annexin V-propidium iodide staining-based flow cytometry (reference value: 94.55%); format: functional; details: PC-3, 48 h, read-out: Activity
# MCF7 [39] = assay: Growth inhibition of human MCF7 cells after 72 hrs by ATP bioluminescence assay; format: functional, cell-based; details: MCF7, 72 h
# A549 [40] = assay: Induction of mitochondrial membrane depolarization in human A549 cells assessed as dead cells at 20 uM after 48 hrs by 7-AAD/Muse mito-potential dye-based assay (reference value: 2.44%); format: functional
# MCF7 [41] = assay: Induction of ROS generation in human MCF7 cells assessed as accumulation at M1 phase at 20 uM after 48 hrs flow cytometry (reference value: 97.67%); format: functional
# MCF7 [42] = assay: Induction of ROS generation in human MCF7 cells assessed as accumulation at M2 phase at 20 uM after 48 hrs flow cytometry (reference value: 2.33%); format: functional
# MCF7 [43] = assay: Induction of apoptosis in human MCF7 cells assessed as early apoptotic cells at 20 uM after 48 hrs by annexin V-propidium iodide staining-based flow cytometry (reference value: 2.15%); format: functional
# A549 [44] = assay: Induction of mitochondrial membrane depolarization in human A549 cells assessed as depolarized live cells at 20 uM after 48 hrs by 7-AAD/Muse mito-potential dye-based assay (reference value: 3.84%); format: functional
# PC-3 [45] = assay: Induction of apoptosis in human PC3 cells assessed as early apoptotic cells at 20 uM after 48 hrs by annexin V-propidium iodide staining-based flow cytometry (reference value: 1.55%); format: functional
# PC-3 [46] = assay: Induction of mitochondrial membrane depolarization in human PC3 cells assessed as live cells at 20 uM after 48 hrs by 7-AAD/Muse mito-potential dye-based assay (reference value: 83.15%); format: functional
# PC-3 [47] = assay: Induction of ROS generation in human PC3 cells assessed as accumulation at M2 phase at 20 uM after 48 hrs flow cytometry (reference value: 0.33%); format: functional
# A549 [48] = assay: Growth inhibition of human A549 cells at 20 uM after 72 hrs by ATP bioluminescence assay; format: functional, cell-based
# MCF7 [49] = assay: Induction of mitochondrial membrane depolarization in human MCF7 cells assessed as dead cells at 20 uM after 48 hrs by 7-AAD/Muse mito-potential dye-based assay (reference value: 2.30%); format: functional
# MCF7 [50] = assay: Induction of apoptosis in human MCF7 cells assessed as late apoptotic cells at 20 uM after 48 hrs by annexin V-propidium iodide staining-based flow cytometry (reference value: 7.25%); format: functional
# PC-3 [51] = assay: Induction of apoptosis in human PC3 cells assessed as viable cells at 20 uM after 48 hrs by caspase 3/7 staining-based flow cytometry (reference value: 94.75%); format: functional; details: PC-3, 48 h, read-out: Activity
# A549 [52] = assay: Growth inhibition of human A549 cells at 20 uM after 72 hrs by SRB assay; format: functional, cell-based
# A549 [53] = assay: Induction of apoptosis in human A549 cells assessed as late apoptotic cells at 20 uM after 48 hrs by annexin V-propidium iodide staining-based flow cytometry (reference value: 3.05%); format: functional
# SW-620 = assay: Antiproliferative activity against human SW620 cells after 48 hrs by MTT assay; format: functional, cell-based; details: SW-620, 48 h
# HCT-116 = assay: Antiproliferative activity against human HCT116 cells after 48 hrs by MTT assay; format: functional, cell-based; details: HCT-116, 48 h
# CT26.WT = assay: Antiproliferative activity against mouse CT26.WT cells after 48 hrs by MTT assay; format: functional, cell-based
compound,measurement,setting,value
CCOc1cccc2cc(C(=O)/C=C/c3ccc(N(C)C)cc3)oc12,Activity,A549 [1],15.29%
same,Activity,A549 [2],0.2%
same,Activity,A549 [3],10.5%
same,Activity,PC-3 [4],59.7%
same,viability at 20 µM,A549 [5],23.1%
same,IC50,PC-3 [6],10 µM
same,Activity,A549 [7],32.78%
same,Activity,PC-3 [8],37.25%
same,Activity,A549 [9],79.33%
same,Activity,A549 [10],20.67%
same,Activity,A549 [11],1.8%
same,Activity,PC-3 [12],30.5%
same,Activity,MCF7 [13],24.3%
same,Activity,PC-3 [14],6.9%
same,Activity,MCF7 [15],Active
same,Activity,PC-3 [16],19.15%
same,Activity,PC-3 [17],0.65%
same,Activity,MCF7 [18],45%
same,Activity,PC-3 [19],98.83%
same,Activity,MCF7 [20],7.9%
same,growth inhibition (GI),PC-3 [21],Active
same,viability at 20 µM,A549 [22],2.8%
same,Activity,A549 [23],7.75%
same,Activity,PC-3 [24],18.6%
same,Activity,MCF7 [25],0.26%
same,Activity,PC-3 [26],11.1%
same,Activity,MCF7 [27],13.5%
same,Activity,MCF7 [28],41%
same,growth inhibition (GI),MCF7 [29],Active
same,IC50,A549 [30],9 µM
same,viability at 20 µM,MCF7 [31],3.3%
same,Activity,MCF7 [32],0.7%
same,Activity,A549 [33],58.7%
same,growth inhibition (GI),MCF7 [34],Active
same,viability at 20 µM,MCF7 [35],13.8%
same,Activity,PC-3 [36],Active
same,Activity,A549 [37],Active
same,viability at 20 µM,PC-3 [38],26.9%
same,IC50,MCF7 [39],2 µM
same,Activity,A549 [40],1.35%
same,Activity,MCF7 [41],85.13%
same,Activity,MCF7 [42],14.87%
same,Activity,MCF7 [43],4.3%
same,Activity,A549 [44],50.57%
same,Activity,PC-3 [45],6.45%
same,Activity,PC-3 [46],31.75%
same,Activity,PC-3 [47],1.17%
same,growth inhibition (GI),A549 [48],Active
same,Activity,MCF7 [49],54.3%
same,Activity,MCF7 [50],91.7%
same,viability at 20 µM,PC-3 [51],51%
same,growth inhibition (GI),A549 [52],Active
same,Activity,A549 [53],95.2%
COc1ccccc1/C=C/C(=O)c1ccc(O)c(O)c1,IC50,SW-620,11.7 µM
same,IC50,HCT-116,25.9 µM
same,IC50,CT26.WT,3.36 µM
